Test results from publication PMC11884936, “MDC1 mediates Pellino recruitment to sites of DNA double-strand breaks” (Life Science Alliance, 2025).

Tests used:
Assay type in all cases: binding, human
PELI1/2 = assay: Biotinylated peptide pull-down from HeLa nuclear extracts, Western blot for PELI1/2; conditions: biotinylated peptide on streptavidin beads, 4 h at 4°C, SDS–PAGE and Western blot
Method: (§1) Streptavidin-coupled Dynabeads MyOne Streptavidin T1 (Invitrogen) were washed four times with PBS pH 7.4. To conjugate the Dynabeads with biotinylated peptides (21st Century Biochemicals, Inc.), 30 μl of beads were incubated with 0.2 μmol of each peptide with end-over-end rotation for 90 min at RT. Conjugated Dynabeads were then washed once with PBS and 3 × 2 min with 0.1% BSA in PBS. HeLa nuclear extracts (Ipracell) were diluted 1:1 in 2X Dilution buffer (100 mM NaCl, 10 mM NaF, 0.2 mM EDTA, 0.4% Igepal CA-630, 20 mM HEPES-KOH pH 7.4) supplemented with complete protease inhibitor cocktail (Roche), and cleared by centrifugation at 16,000g for 15 min at 4°C. Purified GST-PELI2-FHA recombinant protein was also diluted in 2X Dilution buffer containing protease inhibitors. MDC1-[p]TQXF peptide-conjugated Dynabeads were incubated either with clarified HeLa nuclear extracts for 4 h or with purified GST-PELI2-FHA for 5 h. H2AX-[p]S139 peptide-conjugated Dynabeads were incubated with clarified HeLa nuclear extracts for 4 h. In all the cases, incubation was performed with end-over-end rotation at 4°C. Beads were washed three times with Peptide pull-down buffer (50 mM NaCl, 50 mM KCl, 5 mM NaF, 0.1 mM EDTA, 0.2% Igepal CA-630, 10% glycerol, 20 mM HEPES-KOH pH 7.4) supplemented with complete protease inhibitor cocktail (Roche). Then, they were either resuspended in Peptide pull-down buffer and brought to the Functional Genomics Center of the University of Zurich (FGCZ) for further mass spectrometry, or elution was carried out in 2X SDS sample buffer (100 mM DTT, PLD001; Geneaid) for SDS–PAGE. […]
(§2) Adjusted volume (intensity) of Western blot bands was calculated with Image Lab (Bio-Rad, Image Lab Software Version 6.1, Bio-Rad Laboratories, Inc.) for every biotinylated p-peptide from the MDC1-[p]TQXF peptide pull-down from HeLa nuclear extracts, as a way of analyzing the binding affinity of either RNF8 or PELI1/2 for each pTQXF cluster. […]

RNF8 = assay: Biotinylated peptide pull-down from HeLa nuclear extracts, Western blot for RNF8; conditions: biotinylated peptide on streptavidin beads, 4 h at 4°C, SDS–PAGE and Western blot
Method: as §1, with “h.” for “h. In all the cases, incubation was performed with end-over-end rotation at 4°C. Beads were washed three times with Peptide pull-down buffer (50 mM NaCl, 50 mM KCl, 5 mM NaF, 0.1 mM EDTA, 0.2% Igepal CA-630, 10% glycerol, 20 mM HEPES-KOH pH 7.4) supplemented with complete protease inhibitor cocktail (Roche). Then, they were either resuspended in Peptide pull-down buffer and brought to the Functional Genomics Center of the University of Zurich (FGCZ) for further mass spectrometry, or elution was carried out in 2X SDS sample buffer (100 mM DTT, PLD001; Geneaid) for SDS–PAGE.”
as §2

MDC1 = assay: Biotinylated H2AX-pS139 peptide pull-down from HeLa nuclear extracts, Western blot for MDC1; conditions: biotinylated peptide on streptavidin beads, 4 h at 4°C
Method: as §1, with “(Roche).” for “(Roche). Then, they were either resuspended in Peptide pull-down buffer and brought to the Functional Genomics Center of the University of Zurich (FGCZ) for further mass spectrometry, or elution was carried out in 2X SDS sample buffer (100 mM DTT, PLD001; Geneaid) for SDS–PAGE.”

GST-PELI2-FHA = assay: Biotinylated peptide pull-down of purified recombinant GST-PELI2-FHA; conditions: biotinylated peptide on streptavidin beads, 5 h at 4°C, SDS–PAGE, protein stain
Method: For recombinant human PELI2-FHA expression in bacteria and further purification, the GST-tagged PELI2-FHA construct was transformed into E. coli BL21(DE3)pLysS Competent Cells (Promega). 100 μl of the transformation mixture were used to inoculate a 500 ml flask containing 100 ml of Luria–Bertani broth (LB) supplemented with carbenicillin (100 μg/ml) and chloramphenicol (34 μg/ml), and inoculated culture was incubated overnight at 27°C without shaking. On the next day, the overnight culture was grown at 37°C in an orbital shaking incubator until the optical density at 600 nm reached 0.6–0.8, moment when culture was removed from the incubator and rapidly cooled on ice to 25°C. Recombinant protein expression was induced by the addition of 0.4 mM isopropyl β-D-1-thiogalactopyranoside (IPTG) and incubation of the culture for a further 4 h at 25°C shaking at 220 rpm was performed. Cells were then harvested by centrifugation, and the resulting pellet was stored at −80°C until required. […] Protein concentration was measured after every purification step. […]

Substance | PELI1/2 pulled down by the peptide (in words) (PELI1/2) | RNF8 pulled down by the peptide (in words) (RNF8) | MDC1 pulled down by the peptide (in words) (MDC1) | purified GST-PELI2-FHA pulled down by the peptide (in words) (GST-PELI2-FHA)
Biotin-SGS-CLRESEDSE[p]TQPFDT-NH2 [biotinylated pT765, synthetic biotinylated MDC1 TQXF phosphopeptide for pull-downs] | more PELI1/2 than RNF8 |  |  | 
Biotin-SGS-DSEDLDLQA[p]TQCFLE-NH2 [biotinylated pT699, synthetic biotinylated MDC1 TQXF phosphopeptide for pull-downs] | highest quantities | highest quantities |  | 
Biotin-SGS-TVGPKAPSGGKKATQA[p]SQEY-OH [biotinylated H2AX-pS139, biotinylated γH2AX phosphopeptide for pull-downs] |  |  | efficiently pulled down | 
Biotin-SGS-LDEPWEVLA[p]TQPFCL-NH2 [biotinylated pT752, synthetic biotinylated peptide, human MDC1 residues 743–757, phospho-threonine at T752] |  | large quantities |  | specifically pulled down
Biotin-SGS-AVQSMEDEP[p]TQAFML-NH2 [biotinylated pT719, synthetic biotinylated MDC1 TQXF phosphopeptide for pull-downs] | specifically pulled down |  |  | specifically pulled down
